Data: paper PMC5564600 (Oncotarget, 2017)

Tests used:
Assay in all cases: biochemical
Format in all cases: binding
panel of 442 kinases [1] = target: T1, panel of 442 kinases (Homo sapiens, UniProt Q6DT37); conditions: DMPK2; for remaining activity at 1 µM: read-out: % of control at 1 µM
T1 construct: purchased Ambit Biosciences (scanMAXX KINOMEscan)

panel of 442 kinases [2] = target: T2, panel of 442 kinases (Homo sapiens, UniProt Q8TD08); conditions: ERK8; for remaining activity at 1 µM: read-out: % of control at 1 µM
T2 construct: purchased Ambit Biosciences (scanMAXX KINOMEscan)
T2 sequence (Q8TD08 1-544): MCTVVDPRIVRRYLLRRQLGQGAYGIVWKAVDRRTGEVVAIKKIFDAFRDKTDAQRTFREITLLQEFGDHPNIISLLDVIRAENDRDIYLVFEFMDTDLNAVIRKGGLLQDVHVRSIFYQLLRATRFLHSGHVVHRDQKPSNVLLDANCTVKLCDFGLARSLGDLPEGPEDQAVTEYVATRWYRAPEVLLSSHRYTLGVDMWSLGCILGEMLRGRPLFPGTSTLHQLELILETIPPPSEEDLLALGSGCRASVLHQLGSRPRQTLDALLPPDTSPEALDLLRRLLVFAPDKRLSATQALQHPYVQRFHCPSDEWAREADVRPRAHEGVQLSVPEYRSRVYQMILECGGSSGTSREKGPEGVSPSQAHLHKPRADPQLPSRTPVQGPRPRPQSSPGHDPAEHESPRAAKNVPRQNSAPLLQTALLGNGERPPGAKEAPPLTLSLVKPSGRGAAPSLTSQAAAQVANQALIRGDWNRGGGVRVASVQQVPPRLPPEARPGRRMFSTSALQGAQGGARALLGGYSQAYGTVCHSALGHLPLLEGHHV

panel of 442 kinases [3] = target: T3, panel of 442 kinases (Homo sapiens, UniProt Q13163); conditions: kinase MEK5; for remaining activity at 1 µM: read-out: % of control at 1 µM
T3 construct: purchased Ambit Biosciences (scanMAXX KINOMEscan)
T3 sequence (Q13163 1-448): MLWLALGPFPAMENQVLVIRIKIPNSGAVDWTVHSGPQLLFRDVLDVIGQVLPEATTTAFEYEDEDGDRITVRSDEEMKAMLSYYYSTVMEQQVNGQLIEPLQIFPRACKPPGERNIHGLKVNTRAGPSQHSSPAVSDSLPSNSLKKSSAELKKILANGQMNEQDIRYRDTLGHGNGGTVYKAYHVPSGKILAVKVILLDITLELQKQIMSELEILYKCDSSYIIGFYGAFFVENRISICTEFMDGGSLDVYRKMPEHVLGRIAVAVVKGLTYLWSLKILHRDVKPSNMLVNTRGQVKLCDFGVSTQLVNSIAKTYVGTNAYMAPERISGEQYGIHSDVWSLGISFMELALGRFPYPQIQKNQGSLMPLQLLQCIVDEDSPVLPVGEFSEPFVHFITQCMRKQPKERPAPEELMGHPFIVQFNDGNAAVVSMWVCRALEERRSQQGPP

panel of 442 kinases [4] = target: T4, panel of 442 kinases (Homo sapiens, UniProt Q00535); conditions: CDK5; for remaining activity at 1 µM: read-out: % of control at 1 µM
T4 construct: purchased Ambit Biosciences (scanMAXX KINOMEscan)
T4 sequence (Q00535 whole entry): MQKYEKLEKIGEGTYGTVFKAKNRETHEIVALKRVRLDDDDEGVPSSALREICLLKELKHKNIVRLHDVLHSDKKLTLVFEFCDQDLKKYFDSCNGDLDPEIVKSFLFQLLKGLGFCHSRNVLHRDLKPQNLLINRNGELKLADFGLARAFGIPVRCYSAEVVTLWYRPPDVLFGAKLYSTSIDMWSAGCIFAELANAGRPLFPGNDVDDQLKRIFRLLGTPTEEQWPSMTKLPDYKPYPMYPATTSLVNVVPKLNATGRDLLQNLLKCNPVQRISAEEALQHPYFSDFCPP

panel of 442 kinases [5] = target: T5, panel of 442 kinases (Homo sapiens, UniProt Q9Y463); conditions: DYRK1B; for remaining activity at 1 µM: read-out: % of control at 1 µM
T5 construct: purchased Ambit Biosciences (scanMAXX KINOMEscan)
T5 sequence (Q9Y463 whole entry): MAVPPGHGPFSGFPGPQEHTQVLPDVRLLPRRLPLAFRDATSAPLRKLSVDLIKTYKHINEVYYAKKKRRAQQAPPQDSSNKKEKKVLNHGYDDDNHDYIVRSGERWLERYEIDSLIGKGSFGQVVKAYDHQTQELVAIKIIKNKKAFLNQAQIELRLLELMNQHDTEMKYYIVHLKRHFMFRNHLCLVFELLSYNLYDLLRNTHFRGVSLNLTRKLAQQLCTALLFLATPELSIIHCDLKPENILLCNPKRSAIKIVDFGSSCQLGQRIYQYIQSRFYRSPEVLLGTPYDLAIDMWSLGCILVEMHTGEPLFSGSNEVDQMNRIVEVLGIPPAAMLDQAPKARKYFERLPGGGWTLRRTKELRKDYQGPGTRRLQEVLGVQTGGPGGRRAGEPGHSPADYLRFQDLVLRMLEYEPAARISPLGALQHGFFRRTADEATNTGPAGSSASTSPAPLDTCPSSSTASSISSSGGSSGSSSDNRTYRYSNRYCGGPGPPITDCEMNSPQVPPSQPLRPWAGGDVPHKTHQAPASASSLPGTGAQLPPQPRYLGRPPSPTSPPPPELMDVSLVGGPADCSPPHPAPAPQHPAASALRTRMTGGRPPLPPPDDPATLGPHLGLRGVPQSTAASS

panel of 442 kinases [6] = target: T6, panel of 442 kinases (Homo sapiens, UniProt P54756); conditions: EPHA5; for remaining activity at 1 µM: read-out: % of control at 1 µM
T6 construct: purchased Ambit Biosciences (scanMAXX KINOMEscan)
T6 sequence (P54756 25-1037): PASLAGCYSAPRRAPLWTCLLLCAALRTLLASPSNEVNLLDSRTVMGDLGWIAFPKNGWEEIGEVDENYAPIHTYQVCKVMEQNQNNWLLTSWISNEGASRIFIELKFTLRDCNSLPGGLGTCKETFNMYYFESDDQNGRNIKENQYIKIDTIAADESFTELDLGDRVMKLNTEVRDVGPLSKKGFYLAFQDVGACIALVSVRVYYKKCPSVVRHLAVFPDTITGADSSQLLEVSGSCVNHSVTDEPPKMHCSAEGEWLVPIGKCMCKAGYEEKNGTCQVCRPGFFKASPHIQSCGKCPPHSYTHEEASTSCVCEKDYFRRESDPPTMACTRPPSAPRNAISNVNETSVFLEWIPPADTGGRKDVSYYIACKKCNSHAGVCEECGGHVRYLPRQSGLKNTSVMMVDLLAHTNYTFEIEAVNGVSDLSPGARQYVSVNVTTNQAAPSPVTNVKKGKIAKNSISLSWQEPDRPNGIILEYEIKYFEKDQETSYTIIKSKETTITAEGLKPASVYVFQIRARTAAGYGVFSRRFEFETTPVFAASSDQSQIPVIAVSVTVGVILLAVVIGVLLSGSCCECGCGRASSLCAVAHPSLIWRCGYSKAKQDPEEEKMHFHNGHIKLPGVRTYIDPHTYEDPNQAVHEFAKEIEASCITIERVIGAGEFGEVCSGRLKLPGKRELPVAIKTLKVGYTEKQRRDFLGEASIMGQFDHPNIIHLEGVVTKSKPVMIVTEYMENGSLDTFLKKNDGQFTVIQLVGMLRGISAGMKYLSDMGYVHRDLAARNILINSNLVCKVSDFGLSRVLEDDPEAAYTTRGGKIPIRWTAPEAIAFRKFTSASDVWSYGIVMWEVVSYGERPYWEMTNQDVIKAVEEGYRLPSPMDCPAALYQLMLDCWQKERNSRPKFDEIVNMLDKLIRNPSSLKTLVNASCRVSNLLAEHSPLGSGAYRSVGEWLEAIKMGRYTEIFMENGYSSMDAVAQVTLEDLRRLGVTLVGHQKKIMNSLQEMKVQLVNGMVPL

panel of 442 kinases [7] = target: T7, panel of 442 kinases (Homo sapiens, UniProt Q9NSY1); conditions: BIKE; for remaining activity at 1 µM: read-out: % of control at 1 µM
T7 construct: purchased Ambit Biosciences (scanMAXX KINOMEscan)
T7 sequence (Q9NSY1 whole entry): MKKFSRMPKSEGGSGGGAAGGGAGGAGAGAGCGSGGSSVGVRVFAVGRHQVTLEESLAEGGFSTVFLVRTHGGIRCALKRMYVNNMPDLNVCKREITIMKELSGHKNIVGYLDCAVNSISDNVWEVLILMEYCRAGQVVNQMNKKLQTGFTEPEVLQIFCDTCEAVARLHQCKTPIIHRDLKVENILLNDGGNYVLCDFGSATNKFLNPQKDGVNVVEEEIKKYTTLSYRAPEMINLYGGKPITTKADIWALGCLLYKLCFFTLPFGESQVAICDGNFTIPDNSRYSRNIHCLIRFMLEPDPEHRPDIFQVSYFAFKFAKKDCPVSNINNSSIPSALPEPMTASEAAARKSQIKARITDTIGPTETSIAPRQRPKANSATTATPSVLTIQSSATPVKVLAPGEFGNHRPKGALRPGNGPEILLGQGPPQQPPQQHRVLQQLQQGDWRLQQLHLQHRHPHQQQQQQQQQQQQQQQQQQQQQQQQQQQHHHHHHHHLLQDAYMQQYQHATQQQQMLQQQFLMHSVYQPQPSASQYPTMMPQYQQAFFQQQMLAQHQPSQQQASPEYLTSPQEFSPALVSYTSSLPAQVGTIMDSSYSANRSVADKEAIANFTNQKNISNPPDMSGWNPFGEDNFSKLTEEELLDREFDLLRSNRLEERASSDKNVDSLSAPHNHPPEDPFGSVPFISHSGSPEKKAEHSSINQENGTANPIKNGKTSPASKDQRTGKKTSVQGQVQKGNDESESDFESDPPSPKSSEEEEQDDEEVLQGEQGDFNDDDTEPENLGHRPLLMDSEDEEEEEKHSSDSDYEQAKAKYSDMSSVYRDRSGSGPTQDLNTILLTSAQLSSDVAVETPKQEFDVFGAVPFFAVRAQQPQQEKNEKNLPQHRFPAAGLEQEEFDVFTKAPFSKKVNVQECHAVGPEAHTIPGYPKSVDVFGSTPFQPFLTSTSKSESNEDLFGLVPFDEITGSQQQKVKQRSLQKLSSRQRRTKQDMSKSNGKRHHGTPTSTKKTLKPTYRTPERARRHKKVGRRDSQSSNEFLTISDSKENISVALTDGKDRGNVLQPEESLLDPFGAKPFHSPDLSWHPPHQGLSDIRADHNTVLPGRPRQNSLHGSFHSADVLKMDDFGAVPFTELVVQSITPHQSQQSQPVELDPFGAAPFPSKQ

panel of 442 kinases [8] = target: T8, panel of 442 kinases (Homo sapiens, UniProt Q99759); conditions: kinase MAP3K3; for remaining activity at 1 µM: read-out: % of control at 1 µM
T8 construct: purchased Ambit Biosciences (scanMAXX KINOMEscan)
T8 sequence (Q99759 1-626): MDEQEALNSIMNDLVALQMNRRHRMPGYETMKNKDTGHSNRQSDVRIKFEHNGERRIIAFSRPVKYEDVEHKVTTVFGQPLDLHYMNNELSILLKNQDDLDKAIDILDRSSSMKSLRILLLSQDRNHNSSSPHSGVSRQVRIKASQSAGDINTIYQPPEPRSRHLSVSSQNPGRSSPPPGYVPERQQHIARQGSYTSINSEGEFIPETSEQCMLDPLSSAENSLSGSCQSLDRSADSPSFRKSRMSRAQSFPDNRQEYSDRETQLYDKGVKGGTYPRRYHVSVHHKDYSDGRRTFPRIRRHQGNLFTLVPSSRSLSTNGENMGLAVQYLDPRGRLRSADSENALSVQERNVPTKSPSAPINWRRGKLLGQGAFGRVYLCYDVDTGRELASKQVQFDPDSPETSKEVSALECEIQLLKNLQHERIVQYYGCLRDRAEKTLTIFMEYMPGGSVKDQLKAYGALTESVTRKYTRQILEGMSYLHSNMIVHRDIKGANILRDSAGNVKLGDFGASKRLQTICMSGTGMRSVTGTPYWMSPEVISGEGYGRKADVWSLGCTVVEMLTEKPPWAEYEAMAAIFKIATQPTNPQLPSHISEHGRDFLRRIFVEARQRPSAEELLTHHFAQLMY

panel of 442 kinases [9] = target: T9, panel of 442 kinases (Homo sapiens, UniProt Q8NEV4); conditions: kinase MYO3A; for remaining activity at 1 µM: read-out: % of control at 1 µM
T9 construct: purchased Ambit Biosciences (scanMAXX KINOMEscan)

[10] = 10 µM, read-out: % of control at 10 µM

T1 sequence (Q6DT37 whole entry): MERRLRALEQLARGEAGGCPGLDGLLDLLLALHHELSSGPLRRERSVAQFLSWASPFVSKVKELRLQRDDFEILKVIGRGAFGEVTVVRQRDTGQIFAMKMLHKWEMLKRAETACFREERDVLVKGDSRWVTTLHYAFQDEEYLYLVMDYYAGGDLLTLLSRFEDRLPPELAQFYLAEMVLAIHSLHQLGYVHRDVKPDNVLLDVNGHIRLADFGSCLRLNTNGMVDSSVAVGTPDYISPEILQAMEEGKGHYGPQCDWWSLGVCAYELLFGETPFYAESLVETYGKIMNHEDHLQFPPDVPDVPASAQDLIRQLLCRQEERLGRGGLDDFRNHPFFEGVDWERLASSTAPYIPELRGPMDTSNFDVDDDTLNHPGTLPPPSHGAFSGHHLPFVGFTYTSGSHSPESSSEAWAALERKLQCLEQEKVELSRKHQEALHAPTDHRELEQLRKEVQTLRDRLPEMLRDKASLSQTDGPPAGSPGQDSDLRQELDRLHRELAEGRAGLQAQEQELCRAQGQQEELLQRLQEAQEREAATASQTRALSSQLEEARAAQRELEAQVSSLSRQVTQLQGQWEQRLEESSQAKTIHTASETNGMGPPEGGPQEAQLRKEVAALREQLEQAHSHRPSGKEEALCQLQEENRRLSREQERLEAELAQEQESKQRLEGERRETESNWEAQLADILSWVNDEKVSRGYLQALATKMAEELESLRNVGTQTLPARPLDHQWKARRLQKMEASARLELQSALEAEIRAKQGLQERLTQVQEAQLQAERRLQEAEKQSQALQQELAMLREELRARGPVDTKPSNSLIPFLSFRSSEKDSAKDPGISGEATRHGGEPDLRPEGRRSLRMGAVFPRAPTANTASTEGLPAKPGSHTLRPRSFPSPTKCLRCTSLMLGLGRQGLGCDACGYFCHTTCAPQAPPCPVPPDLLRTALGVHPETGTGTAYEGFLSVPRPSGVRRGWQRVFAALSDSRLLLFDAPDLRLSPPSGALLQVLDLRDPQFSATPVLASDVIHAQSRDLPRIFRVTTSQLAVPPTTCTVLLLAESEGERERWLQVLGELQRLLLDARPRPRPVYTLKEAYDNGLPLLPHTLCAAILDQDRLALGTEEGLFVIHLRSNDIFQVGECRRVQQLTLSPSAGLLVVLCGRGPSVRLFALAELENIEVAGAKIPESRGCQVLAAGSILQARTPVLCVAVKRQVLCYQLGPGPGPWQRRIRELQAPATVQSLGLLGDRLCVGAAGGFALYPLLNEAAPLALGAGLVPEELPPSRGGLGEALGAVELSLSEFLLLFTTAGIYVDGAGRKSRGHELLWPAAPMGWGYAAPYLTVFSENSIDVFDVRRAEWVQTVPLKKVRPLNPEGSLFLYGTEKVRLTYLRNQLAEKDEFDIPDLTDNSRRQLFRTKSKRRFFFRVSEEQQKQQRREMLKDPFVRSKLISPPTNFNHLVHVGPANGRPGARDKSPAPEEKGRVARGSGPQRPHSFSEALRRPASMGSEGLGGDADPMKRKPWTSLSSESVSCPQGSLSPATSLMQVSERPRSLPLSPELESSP

In the case of `Nc1cc(C(F)(F)F)c(-c2cc(N3CCOCC3)nc(N3CCOCC3)n2)cn1` [Buparlisib], the remaining activity at 1 µM (panel of 442 kinases [1]) is reported as 100%, the remaining activity at 10 µM (panel of 442 kinases [1]; [10]) is reported as 100% and the remaining activity at 1 µM (panel of 442 kinases [2]) is reported as 100%. It also gave a remaining activity at 10 µM (panel of 442 kinases [2]; [10]) of 100%, a remaining activity at 1 µM (panel of 442 kinases [3]) of 88% and a remaining activity at 10 µM (panel of 442 kinases [3]; [10]) of 85%. The remaining activity at 1 µM (panel of 442 kinases [4]) was 100%, the remaining activity at 10 µM (panel of 442 kinases [4]; [10]) was 99% and the remaining activity at 1 µM (panel of 442 kinases [5]) was 86%. The remaining activity at 10 µM (panel of 442 kinases [5]; [10]) was 100%, the remaining activity at 1 µM (panel of 442 kinases [6]) was 100% and the remaining activity at 10 µM (panel of 442 kinases [6]; [10]) was 100%. It also gave a remaining activity at 1 µM (panel of 442 kinases [7]) of 98%, a remaining activity at 10 µM (panel of 442 kinases [7]; [10]) of 100% and a remaining activity at 1 µM (panel of 442 kinases [8]) of 98%. For the same molecule, the remaining activity at 10 µM (panel of 442 kinases [8]; [10]) was 100%, the remaining activity at 1 µM (panel of 442 kinases [9]) was 90% and the remaining activity at 10 µM (panel of 442 kinases [9]; [10]) was 100%.
With `COc1ncc(-c2ccc3nccc(-c4ccnnc4)c3c2)cc1NS(=O)(=O)c1ccc(F)cc1F` [Omipalisib] the remaining activity at 1 µM (panel of 442 kinases [1]) was 100%, the remaining activity at 1 µM (panel of 442 kinases [2]) was 100% and the remaining activity at 1 µM (panel of 442 kinases [3]) was 69%. The remaining activity at 1 µM (panel of 442 kinases [4]) was 100%, the remaining activity at 1 µM (panel of 442 kinases [5]) was 88% and the remaining activity at 1 µM (panel of 442 kinases [6]) was 100%. The remaining activity at 1 µM (panel of 442 kinases [7]) was 82%, the remaining activity at 1 µM (panel of 442 kinases [8]) was 100% and the remaining activity at 1 µM (panel of 442 kinases [9]) was 100%.
`FC(F)c1nc2ccccc2n1-c1nc(N2CCOCC2)nc(N2CCOCC2)n1` [ZSTK474, 2-(difluoromethyl)-1-[4,6-di(4-morpholinyl)-1,3,5-triazin-2-yl]-1H-benzimidazole] gave a remaining activity at 1 µM (panel of 442 kinases [1]) of 88%, a remaining activity at 1 µM (panel of 442 kinases [2]) of 100% and a remaining activity at 1 µM (panel of 442 kinases [3]) of 99%. It also gave a remaining activity at 1 µM (panel of 442 kinases [4]) of 100%, a remaining activity at 1 µM (panel of 442 kinases [5]) of 97% and a remaining activity at 1 µM (panel of 442 kinases [6]) of 100%. For the same molecule, the remaining activity at 1 µM (panel of 442 kinases [7]) was 53%, the remaining activity at 1 µM (panel of 442 kinases [8]) was 74% and the remaining activity at 1 µM (panel of 442 kinases [9]) was 99%.
Work on `Cn1c(=O)n(-c2ccc(C(C)(C)C#N)cc2)c2c3cc(-c4cnc5ccccc5c4)ccc3ncc21` [Dactolisib, 2-methyl-2-[4-(3-methyl-2-oxo-8-quinolin-3-yl-2,3-dihydroimidazo[4,5-c]quinolin-1-yl)-phenyl] propionitrile] yielded a remaining activity at 1 µM (panel of 442 kinases [1]) of 81%, a remaining activity at 1 µM (panel of 442 kinases [2]) of 86% and a remaining activity at 1 µM (panel of 442 kinases [3]) of 42%. The remaining activity at 1 µM (panel of 442 kinases [4]) was 100%, the remaining activity at 1 µM (panel of 442 kinases [5]) was 93% and the remaining activity at 1 µM (panel of 442 kinases [7]) was 53%. The remaining activity at 1 µM (panel of 442 kinases [8]) was 81% and the remaining activity at 1 µM (panel of 442 kinases [9]) was 88%.
